Results on 1 compound are retold here after patent US20050054103A1, “Expansion of renewable stem cell populations using modulators of PI 3-kinase” (priority 2003, published 2005).

SMILES strings stand for the structures.

One data set has as its system CD34+ cell cultures. Description: Colony forming unit (CFU, LTC-CFUc) ability of RAR antagonist treated CD34+ cultures. In kind it is cell-based, human. Conditions: for No. of CFU*103: RAR antagonist 10^−5 M for one week only. On the procedure:
Cells were cloned in semi-solid, methylcellulose-containing medium supplemented with 2 IU/ml erythropoietin (Eprex, Cilag AG Int., Switzerland), stem cell factor and IL-3, both at 20 ng/ml, and G-CSF and GM-CSF, both at 10 ng/ml (all from Perpo Tech). Cultures were incubated for 14 days at 37° C., 5% CO2 in a humidified atmosphere.
Briefly, the ability of the cultures to maintain self-renewal was measured by determination of the content of colony forming unit cells in the long and extended long-term cultures (LTC-CFUc), as described in the references hereinabove.
Long-term CD34^+ cell cultures were supplemented with a combination of 4 cytokines, Flt3, TPO, IL-6 and IL-3, with and without varying predetermined concentrations of the RAR antagonist AGN 194310. RAR antagonist treatment of the cultures was for a limited period of three weeks or was continuous during the entire culture period. The ability to form CFUs was determined for long-term (6 weeks) cultures treated with 2 doses of the RAR antagonist for a short pulse or continuously and was compared to control samples treated with cytokines alone.

In the next data set the test system is primary hepatocytes. Description: Primary hepatocyte cultures with RAR antagonist (AFP/albumin immunostaining, Giemsa). In kind it is cell-based, mice. Conditions: for α-fetoprotein (AFP) expression vs control: three week old primary cultures, no cytokines. On the procedure: Three intact livers were harvested from 3 week old VLVC female mice (Harlan Laboratories, Jerusalem, Israel), dissected and washed twice with DMEM (Beit Haemek, Israel), incubated with DMEM in the presence 0.05% collagenase for 30 minutes at 37° C., ground and passed through a 200 μm mesh sieve, yielding individual hepatocytes. Cells were washed twice and viability was ascertained with trypan blue. Cells were plated in collagen-coated, 35 mm tissue culture plates at a density of 4-×10^4 live cells/ml in F12 media (containing 15 mM Hepes, 0.1% glucose, 10 mM sodium bicarbonate, 100 units/ml penicillin-streptomycin, glutamine, 0.5 units/ml insulin, 7.5 m cg/ml hydrocortisone, and 10% fetal bovine serum). Medium was changed after 12 hours, the cells were washed twice with phosphate buffered saline (PBS) and new medium was added. Medium was changed twice a week.
Hepatocytes were also grown in the presence of Epidermal Growth Factor (EGF), Platelet-Derived Growth Factor β chain (PDGF-BB), Fibroblast growth Factors (FGF-4) and Hepatocyte Growth Factor (HGF), at 20-50 ng/ml each, for the entire culturing period according to the method of Schwartz et al. (Schwartz R E, Reyes M, Koodie L, Jiang Y, Blackstad M, Lund T, Lenvik T, Johnson S, Hu W S, Verfaillie C M. Multipotent adult progenitor cells from bone marrow differentiate into functional hepatocyte-like cells. J Clin Invest. 2002; 109 (10): 1291-302). Hepatocytes were also grown in serum free medium according to the method of Runge et al. (Runge D, Runge D M, Jager D, Lubecki K A, Beer Stolz D, Karathanasis S, Kietzmann T, Strom S C, Jungermann K, Fleig W E, Michalopoulos G K. Serum-free, long-term cultures of human hepatocytes: maintenance of cell morphology, transcription factors, and liver-specific functions. Biochem Biophys Res Commun. 2000; 269(1): 46-53).
In all of the above-mentioned hepatocytes culture conditions, cells are grown in the presence or absence of the retinoic acid antagonist AGN 194310 at concentrations ranging from 10^−5 M to 10^−9 M.
After a period of 3 weeks, cultures treated with 10^−5 M antagonist were detached with 0.25% trypsin, split and replated at a 1:2 ratio. The cells were either immunostained as described below, or visualized with Giemsa staining.
Murine hepatocyte cultures supplemented with EGF and HGF were evaluated as primary cultures, or following first and second passages. First passage cultures were grown for 2 weeks, split 1:2 and immunostained 8 days later for the presence of albumin, as described below. Second passage cultures were similarly grown for 2 weeks, split 1:2, and grown for an additional week, then split 1:4 and similarly immunostained 4 days later. […]

`CCc1ccc(C2=CC(C)(C)Sc3ccc(C#Cc4ccc(C(=O)O)cc4)cc32)cc1` [AGN 194310]: the “No. of CFU*103” value in the data set on CD34+ cell cultures (week 13) is listed as 66355 *103; in the data set on CD34+ cell cultures (week 20) it was 0 *103. The “increase of CFU content” value with CD34+ cell cultures (extended long-term cultures (week 6 to 10), pulse or continuous treatment) is given as 15×10^4. Besides, the “increase in CFU content as compared to control” value with CD34+ cell cultures (long-term (6 weeks) cultures, pulsed first 3 weeks or continuous antagonist) worked out at 5 fold. The “oval cell population (giemsa)” value with primary hepatocytes (10^−5 M, primary cultures) was “marked increase in oval cell population”. The “α-fetoprotein (AFP) expression vs control” value in the data set with primary hepatocytes (10^−5 M) was “marked increase in AFP expression”; in the data set on primary hepatocytes (10^−5 M, listed as retinoic acid antagonist), “increase in the fraction of cells that stained positively for α-fetoprotein”. Also, the “numbers of hepatocytes vs controls” value in the data set with primary hepatocytes (second passage, EGF + HGF, 10^−5 M to 10^−7 M) is given as “Significantly greater numbers of hepatocytes”.
